What all share (type): functional
Details in all cases: Homo sapiens; for TGI: read-out: pTGI (converted)

Experiment [1] has as its system Panel renal (Carcinoma cell lines). The experiment in a line: Anticancer activity against renal cancer cell lines of NCI60 panel.
In experiment [2] the test system is Panel leukemia (Carcinoma cell lines). Kind of experiment: Anticancer activity against leukemia cancer cell lines of NCI60 panel.
The test system of experiment [3] is Panel prostate (Carcinoma cell lines). Kind of experiment: Anticancer activity against prostate cancer cell lines of NCI60 panel.
The test system of a further experiment is NSCLC. Kind of experiment: Anticancer activity against NSCLC cancer cell lines of NCI60 panel.
Experiment [4] deals with Panel CNS (Carcinoma cell lines). The experiment in a line: Anticancer activity against CNS cancer cell lines of NCI60 panel.
The test system of experiment [5] is Panel ovarian (Carcinoma cell lines). The experiment in a line: Anticancer activity against ovarian cancer cell lines of NCI60 panel.
The subject of experiment [6] is Panel breast (Carcinoma cell lines). Kind of experiment: Anticancer activity against breast cancer cell lines of NCI60 panel.
Experiment [7] deals with Panel melanoma (Carcinoma cell lines). The experiment in a line: Anticancer activity against melanoma cancer cell lines of NCI60 panel.
Experiment [8] deals with Panel colon (Carcinoma cell lines). The experiment in a line: Anticancer activity against colon cancer cell lines of NCI60 panel.

Counter-ions that a name gives are not always drawn.

In the case of `COc1ccc2c(c1)/C(=C\c1cc(OC)c(OC)c(OC)c1)C(=O)N2`, the 50% growth inhibitory concentration (GI50) is 0.575 µM in experiment [1]; 0.0871 µM in [2]; 0.692 µM in experiment [3]; 1.12 µM in the experiment on NSCLC; 0.417 µM in experiment [4]; 0.676 µM in experiment [5]. The GI50 in experiment [6] was 0.398 µM; in experiment [7], 0.891 µM; in experiment [8], 0.182 µM. Further, the 50% lethal concentration (LC50) in [1] was 91.2 µM; in [4], 95.5 µM; in experiment [5] it was 41.7 µM; in experiment [6], 50.1 µM; in experiment [7], 95.5 µM; in [8], 83.2 µM. Also, the TGI in experiment [1] was 19.1 µM; in [2], 11.2 µM; in the experiment with NSCLC, 58.9 µM; in [4] it was 12.6 µM; in [5], 15.5 µM; in experiment [6] it was 14.8 µM. The values for the TGI in [7] and in experiment [8] were 41.7 µM and 32.4 µM, respectively.
Take `COc1cc(/C=C2/C(=O)Nc3cccc(Cl)c32)cc(OC)c1OC`: the GI50 is 61.7 µM in experiment [1]; 2.4 µM in [2]; 75.9 µM in the experiment on NSCLC; 61.7 µM in [4]; 89.1 µM in experiment [5]; 85.1 µM in [6]. In addition, the figures for the TGI in experiment [2] and in [4] were 16.2 µM and 97.7 µM, respectively.
Take `COc1cc2c(cc1C)NC(=O)/C2=C/c1cc(OC)c(OC)c(OC)c1`: the concentration for 50% growth inhibition (GI50) in experiment [1] was 55 µM; in experiment [2] it was 18.2 µM; in the experiment with NSCLC it was 57.5 µM; in [4], 41.7 µM; in [5] it was 75.9 µM; in experiment [7], 74.1 µM. The compound also showed a GI50 in [8] of 85.1 µM. Also, the TGI is 89.1 µM in experiment [1]; 52.5 µM in experiment [2]; 81.3 µM with NSCLC; 83.2 µM in [4]; 93.3 µM in [6].
Turning to `COc1cc(/C=C2/C(=O)Nc3ccc(F)cc32)cc(OC)c1OC`, the 50% growth inhibitory concentration (GI50) in [1] is 34.7 µM; in [2] it was 14.1 µM; in experiment [3], 27.5 µM; in the experiment on NSCLC, 26.9 µM; in experiment [4], 33.1 µM; in experiment [5], 44.7 µM. Moreover, the results for the GI50 in experiment [6], in experiment [7] and in [8] were 9.55 µM, 37.2 µM and 30.9 µM, respectively. Further, the values for the TGI (with NSCLC; in experiment [4]; in [6]) were 91.2 µM, 85.1 µM and 87.1 µM, respectively.
With `COc1cc(/C=C2/C(=O)Nc3ccc(O)cc32)cc(OC)c1OC`, the 50% growth inhibitory concentration (GI50) in experiment [1] is 14.1 µM; in [2] it was 3.02 µM; in experiment [3], 2.4 µM; with NSCLC it was 11.7 µM; in experiment [4], 8.71 µM; in [5], 14.1 µM. The results for the GI50 in experiment [6], in experiment [7] and in experiment [8] were 9.12 µM, 10 µM and 12.3 µM, respectively. Also, the median lethal concentration (LC50) was 83.2 µM in experiment [1]; 89.1 µM in the experiment with NSCLC; 91.2 µM in experiment [4]; 93.3 µM in [5]; 97.7 µM in experiment [6]; 69.2 µM in [7]. Besides, in experiment [8], the LC50 was 83.2 µM. Besides, the TGI was 44.7 µM in experiment [1]; 30.9 µM in experiment [2]; 19.1 µM in experiment [3]; 40.7 µM with NSCLC; 41.7 µM in experiment [4]; 47.9 µM in experiment [5]. Also, the TGI in experiment [6] is 52.5 µM; in [7], 27.5 µM; in experiment [8], 47.9 µM.
Regarding `COc1cc(/C=C2/C(=O)Nc3ccccc32)cc(OC)c1OC`, the GI50 in [1] is 18.6 µM; in experiment [2], 7.59 µM; in experiment [3] it was 18.6 µM; in the experiment on NSCLC, 18.6 µM; in [4], 12.3 µM; in experiment [5] it was 24.5 µM. In addition, the concentration for 50% growth inhibition (GI50) was 19.1 µM in [6], 20 µM in [7] and 15.1 µM in experiment [8]. Also, the TGI in [1] was 75.9 µM; in [2], 87.1 µM; in the experiment on NSCLC, 85.1 µM; in experiment [4], 85.1 µM; in experiment [5] it was 95.5 µM; in experiment [6] it was 77.6 µM. The TGI in [7] is 81.3 µM; in experiment [8], 75.9 µM.
Regarding `COc1cc(/C=C2/C(=O)N(c3ccccc3)c3ccccc32)cc(OC)c1OC`, the GI50 in experiment [1] is 5.75 µM; in experiment [2], 2.29 µM; in experiment [3], 3.16 µM; with NSCLC, 9.33 µM; in [4] it was 6.03 µM; in experiment [5], 10 µM. Moreover, the GI50 in [6] was 8.32 µM; in experiment [7], 7.41 µM; in experiment [8], 5.75 µM. Moreover, the LC50 was 64.6 µM in [1]; 83.2 µM in the experiment with NSCLC; 72.4 µM in experiment [4]; 83.2 µM in experiment [5]; 52.5 µM in [7]; 67.6 µM in experiment [8]. In addition, the TGI in experiment [1] was 23.4 µM; in experiment [2], 14.1 µM; in experiment [3] it was 16.2 µM; in the experiment with NSCLC it was 36.3 µM; in experiment [4] it was 30.9 µM; in experiment [5] it was 32.4 µM. Also, the values for the TGI in [6], in experiment [7] and in experiment [8] were 53.7 µM, 20.9 µM and 26.9 µM, respectively.
With `COc1cc(/C=C2/C(=O)Nc3ccc(Cl)cc32)cc(OC)c1OC`, the 50% growth inhibitory concentration (GI50) is 15.8 µM in experiment [1]; 8.71 µM in [2]; 2.95 µM in experiment [3]; 20.9 µM with NSCLC; 17.4 µM in [4]; 17 µM in experiment [5]. The GI50 is 15.8 µM in [6], 28.2 µM in experiment [7] and 8.32 µM in experiment [8]. Also, the TGI in [1] is 64.6 µM; in the experiment on NSCLC, 74.1 µM; in [4] it was 56.2 µM; in [5] it was 77.6 µM; in experiment [6] it was 56.2 µM; in experiment [8] it was 93.3 µM.
Take `COc1cc(/C=C2/C(=O)N(C)c3ccccc32)cc(OC)c1OC`: the GI50 in experiment [1] was 12.3 µM; in [2], 7.24 µM; in [3], 10.5 µM; in the experiment with NSCLC, 18.2 µM; in experiment [4], 9.55 µM; in experiment [5], 18.2 µM. The GI50 in experiment [6] is 19.5 µM; in [7] it was 17.4 µM; in [8], 13.5 µM. For the same compound, the TGI in experiment [1] was 61.7 µM; in experiment [2], 70.8 µM; in the experiment with NSCLC, 67.6 µM; in experiment [4], 81.3 µM; in experiment [5], 81.3 µM; in experiment [6], 77.6 µM. Further, the figures for the TGI in [7] and in experiment [8] were 43.7 µM and 61.7 µM, respectively.
In the case of `CC[C@]1(O)C[C@H]2CN(CCc3c([nH]c4ccccc34)[C@@](C(=O)OC)(c3cc4c(cc3OC)N(C=O)[C@H]3[C@@](O)(C(=O)OC)[C@H](OC(C)=O)[C@]5(CC)C=CCN6CC[C@]43[C@@H]65)C2)C1` [VINCRISTINE SULFATE], the 50% growth inhibitory concentration (GI50) in experiment [1] was 0.316 µM; in experiment [2], 0.1 µM; in experiment [3], 0.126 µM; in the experiment on NSCLC, 0.251 µM; in experiment [4], 0.126 µM; in [5], 0.316 µM. Moreover, the values for the concentration for 50% growth inhibition (GI50) in [6], in [7] and in experiment [8] were 0.316 µM, 0.158 µM and 0.1 µM, respectively. Also, the TGI is 20 µM in experiment [1]; 15.8 µM in experiment [2]; 6.31 µM in experiment [3]; 15.8 µM in the experiment on NSCLC; 6.31 µM in experiment [4]; 20 µM in experiment [5]. Also, the values for the TGI in experiment [6], in [7] and in experiment [8] were 7.94 µM, 7.94 µM and 3.98 µM, respectively.

By GI50 is commonly meant the concentration that inhibits growth by half. Low readings indicate more potent growth inhibition, high ones less potent growth inhibition. As usually defined, the LC50 is the concentration that kills 50% of the test population. Lower therefore signals a more lethal substance.

These data come from ChEMBL document CHEMBL1137368, “Antitumor activity of substituted E-3-(3,4,5-trimethoxybenzylidene)-1,3-dihydroindol-2-ones1” (2006).
